The values that follow come from ChEMBL document CHEMBL1201862, “PubChem BioAssay data set” (2004).

Among the test systems are HCT-15; SW-620; SN12C; SK-MEL-28; HCT-116; SF-539; A549; UACC-257; M14; HOP-62; CCRF-CEM; SNB-75; A498; U-251; NCI-H522; 786-0; SF-268.
Holding throughout (test): DTP human tumour cell line panel, 48 h

SMILES strings stand for the structures.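 Cultured in 96-well plates, cells were exposed to test compound for 48 hours across five concentrations. The concentration for 50% growth inhibition is given as GI50.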 Activity calls are given as the source filed them. Rule as the data show it: active = GI50 up to about 1.1 µM and inactive = higher.

`Cc1[nH]c2ccccc2c1C1Cc2ccccc2N1C(=O)/C=C/C=C/c1ccccc1` (stereo not drawn): the GI50 – broadly, the concentration that inhibits growth by half – in the assay on HCT-15 is above 100 µM; in the assay on SW-620, > 100 µM (inactive); with SN12C it was > 100 µM (inactive); in the assay with SK-MEL-28, > 100 µM (inactive); in the assay on HCT-116, > 100 µM (inactive); in the assay with SF-539, > 100 µM (inactive). Also, the GI50 with A549 is > 100 µM (inactive); in the assay with UACC-257, 33 µM (inactive); in the assay on M14 it was > 100 µM (inactive); with HOP-62, > 100 µM (inactive); in the assay on CCRF-CEM, 58.2 µM (inactive); with SNB-75 it was > 100 µM (inactive). Besides, the GI50 in the assay with A498, in the assay with U-251, with NCI-H522 and in the assay with 786-0 was > 100 µM (inactive) throughout.
As to `[O-][n+]1c(-c2ccccc2)c2nc3ccccc3nc2c2ccccc21`, the GI50 with HCT-15 was above 100 µM; in the assay with SW-620, > 100 µM (inactive); in the assay with SN12C, > 100 µM (inactive); with SK-MEL-28, > 100 µM (inactive); in the assay on HCT-116, > 100 µM (inactive); with SF-268, > 100 µM (inactive). Further, the GI50 in the assay on SF-539, in the assay with A549, in the assay on UACC-257, in the assay on M14, in the assay on HOP-62 and with CCRF-CEM was > 100 µM (inactive) in each case. The GI50 is 31.1 µM (inactive) in the assay on SNB-75; > 100 µM (inactive) with A498; > 100 µM (inactive) in the assay on U-251; > 100 µM (inactive) in the assay with NCI-H522; > 100 µM (inactive) in the assay with 786-0.
For `CCCN1CN(C(C(=O)N[C@@H]2C(=O)N3C2SC(C)(C)C3C(=O)O)c2ccc(O)cc2)CSC1=S` (stereo partly drawn), the GI50 is above 100 µM in the assay with HCT-15; > 100 µM (inactive) in the assay with SN12C; > 100 µM (inactive) in the assay on SK-MEL-28; > 100 µM (inactive) in the assay with HCT-116; > 100 µM (inactive) in the assay with SF-268; > 100 µM (inactive) with SF-539. Further, the GI50 with UACC-257, with M14, in the assay on HOP-62, in the assay on CCRF-CEM, with SNB-75 and with A498 was > 100 µM (inactive) each time. The GI50 was > 100 µM (inactive) in the assay with U-251, 22.6 µM (inactive) with NCI-H522 and > 100 µM (inactive) in the assay with 786-0.
As for `O=C1c2cccc(O)c2C(=O)c2c(O)cccc21` [DANTHRON], the GI50 is 74.8 µM in the assay on HCT-15; 64.1 µM (inactive) in the assay on SW-620; > 100 µM (inactive) in the assay with SN12C; > 100 µM (inactive) in the assay on SK-MEL-28; 49 µM (inactive) with HCT-116; > 100 µM (inactive) in the assay on SF-268. Also, the GI50 in the assay with SF-539 was 53.6 µM (inactive); with A549 it was 56.1 µM (inactive); in the assay on UACC-257, 85.1 µM (inactive); with M14, 97.7 µM (inactive); in the assay on HOP-62, > 100 µM (inactive); in the assay with CCRF-CEM, > 100 µM (inactive). In addition, the GI50 is > 100 µM (inactive) with SNB-75; 17.9 µM (inactive) in the assay on A498; 69.3 µM (inactive) with U-251; 62.7 µM (inactive) in the assay with NCI-H522; > 100 µM (inactive) in the assay on 786-0.
In the case of `O=C1/C(=C/c2ccccc2)CN(C(=O)OCC(Cl)(Cl)Cl)C/C1=C\c1ccccc1`, the GI50 with HCT-15 is 1.95 µM; with SW-620, 1.09 µM (active); in the assay on SN12C, 1.84 µM (inactive); in the assay on SK-MEL-28, 1.66 µM (inactive); with HCT-116, 1.33 µM (inactive); in the assay with SF-268, 3.81 µM (inactive). Also, the GI50 is 4.29 µM (inactive) in the assay with SF-539; 5.02 µM (inactive) in the assay on A549; 2.09 µM (inactive) with UACC-257; 2.14 µM (inactive) in the assay with M14; 1.71 µM (inactive) in the assay on CCRF-CEM; 3.86 µM (inactive) in the assay on SNB-75. The GI50 in the assay with A498 was 2 µM (inactive); in the assay with U-251, 1.68 µM (inactive); in the assay with NCI-H522, 3.47 µM (inactive); with 786-0 it was 2.14 µM (inactive).
In the case of `O=C1CCCC/C1=C1\C(=O)Nc2cc(F)ccc21`, the GI50 with HCT-15 is above 100 µM; in the assay with SW-620 it was 35.3 µM (inactive); in the assay on SN12C, > 100 µM (inactive); in the assay with SK-MEL-28, > 100 µM (inactive); in the assay on HCT-116, > 100 µM (inactive); in the assay on SF-268, > 100 µM (inactive). Further, the GI50 in the assay on SF-539, with A549, in the assay on UACC-257, in the assay with M14, in the assay with HOP-62 and in the assay with CCRF-CEM was > 100 µM (inactive) in each case. Besides, the GI50 with SNB-75, in the assay with A498, in the assay on U-251, in the assay with NCI-H522 and in the assay with 786-0 was > 100 µM (inactive) in each case.
On to `CCOC(=O)c1cn2c([nH]c3ccccc32)c(C#N)c1=O`, for which the GI50 was above 100 µM in the assay on HCT-15; 17.1 µM (inactive) with SW-620; > 100 µM (inactive) in the assay with SN12C; > 100 µM (inactive) in the assay on SK-MEL-28; 80.4 µM (inactive) with HCT-116; > 100 µM (inactive) with SF-268. In addition, the GI50 with SF-539 was > 100 µM (inactive); with A549, > 100 µM (inactive); in the assay with UACC-257, > 100 µM (inactive); in the assay on M14, > 100 µM (inactive); in the assay on HOP-62, > 100 µM (inactive); with CCRF-CEM it was 52.4 µM (inactive). In addition, the GI50 in the assay on SNB-75, with A498, in the assay with U-251, in the assay with NCI-H522 and in the assay on 786-0 was > 100 µM (inactive) each time.
With `Clc1ccccc1C1=NN(c2ccccc2)C2c3cc(Br)ccc3OCC12` (stereo not drawn), the GI50 with SW-620, with SK-MEL-28, in the assay on HCT-116, with SF-268, with SF-539 and with A549 was > 100 µM (inactive) throughout. Further, the GI50 in the assay with UACC-257, in the assay on HOP-62, in the assay with CCRF-CEM, in the assay with SNB-75, with A498 and in the assay on U-251 was > 100 µM (inactive) in each case. For the same compound, the GI50 in the assay with NCI-H522 and in the assay with 786-0 was > 100 µM (inactive) in each case.
Consider `O=C(CC(=O)C1CCOC1=O)C(=O)Nc1ccc(Cl)cc1` (stereo not drawn), for which the GI50 was above 100 µM in the assay with HCT-15; > 100 µM (inactive) with SW-620; > 100 µM (inactive) in the assay on SN12C; > 100 µM (inactive) with SK-MEL-28; > 100 µM (inactive) in the assay with HCT-116; > 100 µM (inactive) in the assay with SF-268. Also, the GI50 in the assay on SF-539, in the assay on A549, in the assay on UACC-257, with M14, with HOP-62 and with CCRF-CEM was > 100 µM (inactive) each time. For the same compound, the GI50 in the assay on SNB-75, with A498, in the assay with U-251, in the assay with NCI-H522 and in the assay with 786-0 was > 100 µM (inactive) each time.
Consider `Nc1ccc(C(=O)/C=C/c2ccccc2O)cc1`, for which the GI50 is above 100 µM in the assay on HCT-15; > 100 µM (inactive) with SW-620; > 100 µM (inactive) in the assay with SN12C; > 100 µM (inactive) with SK-MEL-28; > 100 µM (inactive) in the assay with HCT-116; > 100 µM (inactive) with SF-268. In addition, the GI50 with SF-539, in the assay with A549, in the assay on UACC-257, with M14, with HOP-62 and in the assay on CCRF-CEM was > 100 µM (inactive) throughout. The GI50 with SNB-75, in the assay with A498, in the assay with U-251, in the assay on NCI-H522 and in the assay on 786-0 was > 100 µM (inactive) throughout.
As to `CC(CC(=O)Nc1ccc(NC(=O)CC(C)/N=N\C(N)=O)cc1)/N=N\C(N)=O` (stereo not drawn), the GI50 is 16.4 µM in the assay with HCT-15; > 100 µM (inactive) in the assay with SN12C; > 100 µM (inactive) with SK-MEL-28; > 100 µM (inactive) in the assay with HCT-116; > 100 µM (inactive) in the assay on SF-268; > 100 µM (inactive) in the assay with SF-539. Besides, the GI50 in the assay on A549, in the assay with UACC-257, in the assay with M14, in the assay with HOP-62, in the assay on CCRF-CEM and in the assay with SNB-75 was > 100 µM (inactive) throughout. For the same compound, the GI50 in the assay on A498, in the assay on U-251, in the assay on NCI-H522 and in the assay with 786-0 was > 100 µM (inactive) each time.
For `Fc1ccc2c(c1)SC1Oc3ccccc3-c3c1c-2nn3-c1ccccc1` (stereo not drawn), the GI50 in the assay with SW-620 was > 100 µM (inactive); in the assay with SK-MEL-28 it was > 100 µM (inactive); in the assay on HCT-116, 66.8 µM (inactive); in the assay on SF-268, > 100 µM (inactive); in the assay on SF-539, > 100 µM (inactive); in the assay with A549, > 100 µM (inactive). Further, the GI50 in the assay on UACC-257 was > 100 µM (inactive); in the assay on HOP-62, 30.4 µM (inactive); in the assay with CCRF-CEM, > 100 µM (inactive); in the assay with SNB-75, 86.7 µM (inactive); in the assay on A498 it was > 100 µM (inactive); with U-251 it was > 100 µM (inactive). The GI50 is 37.9 µM (inactive) in the assay with NCI-H522 and > 100 µM (inactive) with 786-0.
